According to ChEMBL document CHEMBL3132849, “Bioactive prenylated phenyl derivatives derived from marine natural products: novel scaffolds for the design of BACE inhibitors” (Medchemcomm, 2014):
Where “and” joins values, the source holds several entries; their conditions need not be identical. Equal values may be shown once. Starred links: 1 amine or outer side, 2 acyl side, 3 side chain; linkers in the order of their positions; H or OH if unused. Non-standard residues stand in square brackets, D forms with d. Residues, ends and D or L forms follow the SMILES beside them. LeuΨ(S-CHOHCH2)Ala = CC(C)C[C@H](N[*:1])[C@@H](O)C[C@@H](C)C(=O)[*:2]

Experiments:
[1] = target: Beta-secretase 1 (Homo sapiens) (UniProt P56817); test: Inhibition of recombinant human BACE1 using fluorogenic peptide 4 as substrate at 1 uM by FRET assay
Sequence of Beta-secretase 1 (Homo sapiens) (P56817 whole entry): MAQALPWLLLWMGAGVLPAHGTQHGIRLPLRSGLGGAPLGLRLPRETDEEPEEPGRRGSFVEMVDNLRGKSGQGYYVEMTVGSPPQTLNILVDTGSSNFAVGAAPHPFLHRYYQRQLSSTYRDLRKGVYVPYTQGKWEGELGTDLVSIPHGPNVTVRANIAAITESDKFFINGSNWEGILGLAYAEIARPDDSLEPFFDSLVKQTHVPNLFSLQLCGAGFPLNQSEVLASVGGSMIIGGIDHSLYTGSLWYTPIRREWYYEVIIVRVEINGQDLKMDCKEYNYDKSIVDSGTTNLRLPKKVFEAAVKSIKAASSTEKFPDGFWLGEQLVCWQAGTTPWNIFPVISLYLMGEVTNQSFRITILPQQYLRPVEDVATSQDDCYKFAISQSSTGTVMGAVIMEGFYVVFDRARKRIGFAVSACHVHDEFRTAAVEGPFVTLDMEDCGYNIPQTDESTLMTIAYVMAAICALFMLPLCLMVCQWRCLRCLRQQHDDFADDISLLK

[2] = target: Beta-secretase 1 (Homo sapiens) (UniProt P56817); test: Inhibition of recombinant human BACE1 using fluorogenic peptide 4 as substrate at 10 uM by FRET assay
[3] = target: Beta-secretase 1 (Homo sapiens) (UniProt P56817); test: Inhibition of BACE1 (unknown origin) expressed in human APP751 transfected CHO-7W cells assessed as inhibition of amyloid-beta (1 to 40) peptide production at 10 uM after 24 hrs by Abeta40 human ELISA Kit; assay type: cell-based
[4] = target: Beta-secretase 1 (Homo sapiens) (UniProt P56817); test: Inhibition of BACE1 (unknown origin) expressed in human APP751 transfected CHO-7W cells assessed as inhibition of amyloid-beta (1 to 40) peptide production at 1 uM after 24 hrs by Abeta40 human ELISA Kit; assay type: cell-based
CHO = test: Cytotoxicity in Cricetulus griseus CHO cells expressing human APP751 at 10 uM; assay type: cell-based; conditions: chinese hamster
[5] = Cytotoxicity in human SH-SY5Y cells at 1 to 10 uM; assay type: cell-based
[6] = target: Beta-secretase 1 (Homo sapiens) (UniProt P56817); test: Inhibition of recombinant human BACE1 assessed as fluorescence at 1 uM using FRET ASSAY KIT
[7] = target: Beta-secretase 1 (Homo sapiens) (UniProt P56817); test: Inhibition of recombinant human BACE1 assessed as fluorescence at 10 uM using FRET ASSAY KIT
[8] = target: Beta-secretase 1 (Homo sapiens) (UniProt P56817); conditions: CHO-7W, 3 uM
Description: Inhibition of BACE1 in human APP751 transfected CHO-7W cells assessed as inhibition of amyloid-beta (1 to 40) peptide production at 3 uM after 24 hrs by Abeta40 human ELISA Kit

Row | SMILES | inhibition [1] | inhibition [2] [%] | inhibition [3] | inhibition [4] | Activity (CHO) | Activity [5] | inhibition [6] [%] | inhibition [7] [%] | inhibition [8] [%]
1 | CCCS(=O)(=O)Oc1ccc(C(=O)O)cc1NC/C=C(\C)CC/C=C(\C)CCC=C(C)C | 93% | 3 | 36% | 14% | – | – | – | – | –
2 | CC(=O)Oc1ccc(C(=O)O)cc1C/C=C(\C)CC/C=C(\C)CC/C=C(\C)CCC=C(C)C | 87% | 17 | – | 24% | Toxic | – | – | – | –
3 | COC(=O)c1ccnc(NC/C=C(\C)CC/C=C(\C)CCC=C(C)C)c1 | 100% | 70 | 0% | – | – | – | – | – | –
4 | CCOC(=O)COc1ccc(C(=O)OC)cc1N(C/C=C(\C)CC/C=C(\C)CCC=C(C)C)CC(=O)OCC | 100% | 0 | 36% | 14% | – | – | – | – | –
5 | CC(C)=CCC/C(C)=C/CC/C(C)=C/CNc1cccc(C(=O)O)c1 | 89% | 25 | – | – | – | Toxic | – | – | –
6 | COc1ccc(C(=O)N[C@@H](Cc2ccccc2)[C@H](O)CNC2CC2)cc1NC/C=C(\C)CC/C=C(\C)CCC=C(C)C | – | – | 28% | 10% | – | – | 63 | 34 | –
7 | COc1ccccc1NC/C=C(\C)CC/C=C(\C)CCC=C(C)C | 94% | 64 | 0% | – | – | – | – | – | –
8 | CC(C)=CCC/C(C)=C/CC/C(C)=C/Cc1cc(C(=O)O)ccc1O | 100% | 5 | – | – | – | – | – | – | –
9 | COC(=O)c1ccc(OC)c(NC/C=C(\C)CC/C=C(\C)CCC=C(C)C)c1 | 100% | 68 | 29% | 0% | – | – | – | – | –
10 | CC(C)=CCC/C(C)=C/CC/C(C)=C/CNc1cc(C(=O)O)ccc1O | 100% | 36 | 0% | – | – | – | – | – | –
11 | COC(=O)c1ccc2c(c1)N(C/C=C(\C)CC/C=C(\C)CCC=C(C)C)C(=O)CO2 | 59% | 22 | 29% | 0% | – | – | – | – | –
12 | CC(C)=CCC/C(C)=C/CC/C(C)=C/CN1C(=O)COc2ccc(C(=O)O)cc21 | 100% | 17 | 0% | 0% | – | – | – | – | –
13 | CC(C)=CCC/C(C)=C/CC/C(C)=C/CC/C(C)=C/Cc1cc(C(=O)O)ccc1O | 42% and 45% | 0 | 30% and 47% | 8% and 10% | – | – | – | – | –
14 | COC(=O)c1ccc(OC)c(NC[C@H](O)[C@@H](Cc2ccccc2)NC/C=C(\C)CCC=C(C)C)c1 | – | – | – | 3% | Toxic | – | 100 | 56 | –
15 | COc1ccc(C(=O)O)cc1NC/C=C(\C)CC/C=C(\C)CCC=C(C)C | 50% | 0 | – | 31% | Toxic | – | – | – | –
16 | CC(C)C[C@H](NC(=O)[C@H](CC(N)=O)NC(=O)[C@@H](NC(=O)[C@@H](N)CCC(=O)O)C(C)C)[C@@H](O)C[C@@H](C)C(=O)N[C@@H](C)C(=O)N[C@@H](CCC(=O)O)C(=O)N[C@@H](Cc1ccccc1)C(=O)O (H-EVN[LeuΨ(S-CHOHCH2)Ala]AEF-OH) | – | – | – | – | – | – | – | – | 80
17 | CCCOc1ccc(C(=O)OC)cc1NC/C=C(\C)CC/C=C(\C)CCC=C(C)C | 88% | 27 | 0% | 0% | – | – | – | – | –
